Laboratory results reported in patent publication US20160271149A1, “[…] COMPOUNDS THAT […] PROTEIN ARGININE […] ACTIVITY FOR REDUCING TUMOR CELL PROLIFERATION” (Epinova Therapeutics Corp., priority 2015, published 2016).
Several values for one entry are separate records, joined by “and”; a condition that tells them apart may be missing. Equal entries are not always repeated. Structures can show the parent of a compound that is named as a salt.

Legend:
PRMT5/MEP50 = PRMT5/MEP50 (Homo sapiens, UniProt O14744); assay: Methyltransferase activity screen and profiling, PRMT5/MEP50, substrate Histone H2A; conditions: for % Enzyme Activity (relative to DMSO controls): PRMT5/MEP50, substrate Histone H2A, single-dose mode, duplicate (Data 1, Data 2), 1 μM SAM, 100 μM; for % Activity / Raw data: PRMT5/MEP50 profiling; for HILLSLOPE: Table 4, PRMT5/MEP50 dose-response curve fit
Sequence of PRMT5/MEP50 (O14744 whole entry): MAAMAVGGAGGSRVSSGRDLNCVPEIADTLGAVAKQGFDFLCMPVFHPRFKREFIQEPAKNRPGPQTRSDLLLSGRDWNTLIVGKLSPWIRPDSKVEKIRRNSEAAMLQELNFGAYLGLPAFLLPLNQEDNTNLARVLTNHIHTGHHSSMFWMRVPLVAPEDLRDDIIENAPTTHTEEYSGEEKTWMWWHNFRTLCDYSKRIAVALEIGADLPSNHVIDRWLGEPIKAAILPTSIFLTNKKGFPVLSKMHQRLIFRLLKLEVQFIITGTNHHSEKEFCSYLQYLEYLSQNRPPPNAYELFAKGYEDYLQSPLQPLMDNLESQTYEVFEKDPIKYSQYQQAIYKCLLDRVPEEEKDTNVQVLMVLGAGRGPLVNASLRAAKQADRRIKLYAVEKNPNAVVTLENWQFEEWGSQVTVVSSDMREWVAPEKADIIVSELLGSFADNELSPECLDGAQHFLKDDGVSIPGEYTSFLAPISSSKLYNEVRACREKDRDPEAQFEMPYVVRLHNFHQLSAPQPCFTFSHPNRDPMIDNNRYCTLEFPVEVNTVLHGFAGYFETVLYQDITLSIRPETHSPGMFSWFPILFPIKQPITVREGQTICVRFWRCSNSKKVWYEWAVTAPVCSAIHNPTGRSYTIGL
Sequence of PRMT5/MEP50 (Q9BQA1 whole entry partner): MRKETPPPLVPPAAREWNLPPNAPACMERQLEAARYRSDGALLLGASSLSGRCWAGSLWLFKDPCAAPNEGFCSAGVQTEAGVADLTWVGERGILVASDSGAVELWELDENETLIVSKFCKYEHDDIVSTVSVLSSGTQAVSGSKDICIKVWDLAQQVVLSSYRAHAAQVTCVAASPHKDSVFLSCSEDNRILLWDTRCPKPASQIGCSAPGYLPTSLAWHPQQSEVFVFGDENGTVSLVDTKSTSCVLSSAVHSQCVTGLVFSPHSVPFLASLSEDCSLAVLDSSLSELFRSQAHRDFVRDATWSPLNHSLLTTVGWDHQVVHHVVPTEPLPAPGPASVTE
Experimental: (§1) A 10 mM DMSO stock solution of each test compound was prepared.
(§2) Compounds were tested in a single-dose mode, in duplicate at the following concentrations.
(§3) Reactions were carried out at 1 μM SAM. The no inhibitor control was set as 100% activity).

PRMT6 = PRMT6 (Homo sapiens, UniProt Q96LA8); assay: Methyltransferase activity screen, PRMT6, substrate Histone H3; conditions: for % Enzyme Activity (relative to DMSO controls): PRMT6, substrate Histone H3, single-dose mode, duplicate (Data 1, Data 2), 1 μM SAM, 100 μM
Sequence of PRMT6 (Q96LA8 whole entry): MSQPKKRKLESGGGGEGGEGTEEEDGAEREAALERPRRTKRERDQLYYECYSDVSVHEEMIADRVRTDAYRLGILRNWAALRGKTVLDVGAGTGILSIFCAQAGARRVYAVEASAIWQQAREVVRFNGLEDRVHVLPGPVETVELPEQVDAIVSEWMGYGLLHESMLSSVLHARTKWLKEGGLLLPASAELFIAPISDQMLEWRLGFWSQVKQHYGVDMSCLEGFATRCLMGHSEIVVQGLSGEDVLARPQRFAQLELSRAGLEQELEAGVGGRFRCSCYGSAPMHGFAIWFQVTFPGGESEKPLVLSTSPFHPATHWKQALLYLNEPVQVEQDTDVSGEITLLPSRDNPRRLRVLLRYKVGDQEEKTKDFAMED
Experimental: as §1, §2, §3

PRMT5 = PRMT5 (Homo sapiens, UniProt O14744); assay: Methyltransferase activity screen, PRMT5, substrate Histone H2A; conditions: for % Enzyme Activity (relative to DMSO controls): PRMT5, substrate Histone H2A, single-dose mode, duplicate (Data 1, Data 2), 1 μM SAM, 100 μM; for inhibition of PRMT5: at a concentration of 100 μM
Sequence of PRMT5 (O14744 whole entry): as the sequence (O14744 whole entry) above
Experimental: as §1, §2, §3

PRMT1 = PRMT1 (Homo sapiens, UniProt Q99873); assay: Methyltransferase activity screen, PRMT1, substrate Histone H4; conditions: single-dose mode, duplicate (Data 1, Data 2), 1 μM SAM, 100 μM
Sequence of PRMT1 (Q99873 whole entry): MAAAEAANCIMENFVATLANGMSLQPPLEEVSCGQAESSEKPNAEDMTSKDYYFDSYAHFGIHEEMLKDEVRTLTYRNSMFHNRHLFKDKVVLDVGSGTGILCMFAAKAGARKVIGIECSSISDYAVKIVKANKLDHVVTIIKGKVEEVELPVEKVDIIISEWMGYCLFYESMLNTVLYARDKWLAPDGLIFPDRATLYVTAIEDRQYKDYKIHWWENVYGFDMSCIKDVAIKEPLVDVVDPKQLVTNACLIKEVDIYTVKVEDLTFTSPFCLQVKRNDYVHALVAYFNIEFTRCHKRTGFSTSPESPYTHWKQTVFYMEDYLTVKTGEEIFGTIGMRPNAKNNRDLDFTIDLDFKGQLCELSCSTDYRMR
Experimental: as §1, §2, §3

human PPARα = biological target: T1, human PPARα (Homo sapiens, UniProt Q07869); conditions: at 1 μM; COS-1 cells, human PPARα and RXRα; cited from earlier work
T1 sequence (Q07869 1-468): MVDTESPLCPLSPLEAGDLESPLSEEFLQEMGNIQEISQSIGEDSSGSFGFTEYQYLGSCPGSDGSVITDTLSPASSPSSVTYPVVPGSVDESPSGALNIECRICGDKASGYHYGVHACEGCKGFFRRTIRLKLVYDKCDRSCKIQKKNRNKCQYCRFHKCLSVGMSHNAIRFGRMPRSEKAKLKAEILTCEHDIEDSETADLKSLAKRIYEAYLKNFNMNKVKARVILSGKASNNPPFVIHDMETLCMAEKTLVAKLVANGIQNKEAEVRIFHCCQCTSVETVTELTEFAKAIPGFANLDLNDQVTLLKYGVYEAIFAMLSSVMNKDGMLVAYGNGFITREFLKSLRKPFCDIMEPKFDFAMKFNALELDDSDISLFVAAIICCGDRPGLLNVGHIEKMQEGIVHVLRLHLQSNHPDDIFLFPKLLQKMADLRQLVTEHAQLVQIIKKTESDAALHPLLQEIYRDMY
T1 sequence (P19793 1-462 partner): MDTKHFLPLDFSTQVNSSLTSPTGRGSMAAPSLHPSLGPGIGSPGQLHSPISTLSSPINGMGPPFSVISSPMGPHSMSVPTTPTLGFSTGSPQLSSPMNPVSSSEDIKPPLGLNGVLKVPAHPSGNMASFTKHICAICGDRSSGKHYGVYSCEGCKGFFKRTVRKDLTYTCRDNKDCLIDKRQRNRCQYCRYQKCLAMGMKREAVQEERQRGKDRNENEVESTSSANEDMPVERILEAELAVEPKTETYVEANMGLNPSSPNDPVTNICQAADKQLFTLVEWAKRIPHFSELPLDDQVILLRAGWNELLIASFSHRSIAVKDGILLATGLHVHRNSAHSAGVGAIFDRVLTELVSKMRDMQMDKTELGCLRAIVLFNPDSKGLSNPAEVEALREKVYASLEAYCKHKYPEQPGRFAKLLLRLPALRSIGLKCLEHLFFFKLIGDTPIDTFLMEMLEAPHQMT

LXR and FXR = conditions: cited from earlier work
LXRα = biological target: T2, LXRα (Homo sapiens, UniProt Q13133); conditions: human isoform; cited from earlier work
T2 sequence (Q13133 1-447): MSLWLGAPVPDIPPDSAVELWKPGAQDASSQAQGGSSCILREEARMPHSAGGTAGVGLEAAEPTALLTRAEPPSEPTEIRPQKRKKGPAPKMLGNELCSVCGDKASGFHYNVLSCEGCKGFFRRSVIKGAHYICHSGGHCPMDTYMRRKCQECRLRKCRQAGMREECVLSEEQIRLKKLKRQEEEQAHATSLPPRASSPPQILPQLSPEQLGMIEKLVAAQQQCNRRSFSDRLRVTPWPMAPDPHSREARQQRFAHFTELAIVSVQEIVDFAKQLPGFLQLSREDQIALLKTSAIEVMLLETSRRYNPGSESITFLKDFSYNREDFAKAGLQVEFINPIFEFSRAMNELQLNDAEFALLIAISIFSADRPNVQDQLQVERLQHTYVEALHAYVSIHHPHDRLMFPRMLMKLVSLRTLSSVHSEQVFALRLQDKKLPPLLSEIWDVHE

TGR5 = biological target: T3, TGR5 (Homo sapiens, UniProt Q8TDU6); conditions: cited from earlier work
T3 sequence (Q8TDU6 1-330): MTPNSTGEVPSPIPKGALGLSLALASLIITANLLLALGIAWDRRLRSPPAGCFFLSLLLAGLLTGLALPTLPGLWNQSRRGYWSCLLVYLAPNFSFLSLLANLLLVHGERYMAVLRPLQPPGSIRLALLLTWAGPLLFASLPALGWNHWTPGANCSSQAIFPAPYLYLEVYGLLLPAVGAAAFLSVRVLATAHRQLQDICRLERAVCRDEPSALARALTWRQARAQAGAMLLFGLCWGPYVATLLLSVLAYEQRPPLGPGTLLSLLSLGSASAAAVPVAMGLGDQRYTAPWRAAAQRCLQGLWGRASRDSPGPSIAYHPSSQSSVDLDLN

PRMTs = assay: Screen against protein arginine methyltransferases, summary statement
Experimental: as §1, §2, §3

| SMILES | % Enzyme Activity (relative to DMSO controls) (PRMT5/MEP50) | % Enzyme Activity (relative to DMSO controls) (PRMT6) | % Enzyme Activity (relative to DMSO controls) (PRMT5) | % Enzyme Activity (relative to DMSO controls) (PRMT1) | % Activity (PRMT5/MEP50; Conc. 1.00E−04 M) | Raw data (PRMT5/MEP50; Conc. 1.00E−04 M) | % Activity (PRMT5/MEP50; Conc. 1.11E−05 M) | Raw data (PRMT5/MEP50; Conc. 1.11E−05 M) | % Activity (PRMT5/MEP50; Conc. 1.23E−06 M) | Raw data (PRMT5/MEP50; Conc. 1.23E−06 M) | % Activity (PRMT5/MEP50; Conc. 1.37E−07 M) | Raw data (PRMT5/MEP50; Conc. 1.37E−07 M) | % Activity (PRMT5/MEP50; Conc. 1.52E−08 M) | Raw data (PRMT5/MEP50; Conc. 1.52E−08 M) | % Activity (PRMT5/MEP50; Conc. 3.33E−05 M) | Raw data (PRMT5/MEP50; Conc. 3.33E−05 M) | % Activity (PRMT5/MEP50; Conc. 3.70E−06 M) | Raw data (PRMT5/MEP50; Conc. 3.70E−06 M) | % Activity (PRMT5/MEP50; Conc. 4.12E−07 M) | Raw data (PRMT5/MEP50; Conc. 4.12E−07 M) | further results |
| --- | --- | --- | --- | --- | --- | --- | --- | --- | --- | --- | --- | --- | --- | --- | --- | --- | --- | --- | --- | --- | --- |
| CN(C)C(=N)N=C(N)N [Metformin, N, N-dimethyl-imidodicarbonimidic diamide, monohydrochloride] | – | – | – | – | – | – | – | – | – | – | – | – | – | – | – | – | – | – | – | – | % Enzyme Activity (relative to DMSO controls) (PRMT5/MEP50; monohydrochloride): 88.20% and 82.84%; % Enzyme Activity (relative to DMSO controls) (PRMT6; monohydrochloride): 90.66% and 90.30%; % Enzyme Activity (relative to DMSO controls) (PRMT5; monohydrochloride): 98.74% and 84.85%; % Enzyme Activity (relative to DMSO controls) (PRMT1; monohydrochloride): 100.50% and 101.26% |
| CCc1ccc(CCOc2ccc(CC3SC(=O)NC3=O)cc2)nc1 (stereo not shown) [Pioglitazone, 5-[[4-[2-(5-ethyl-2-pyridinyl)ethoxy]phenyl]methyl]-2,4-thiazolidinedione] | 43.68% and 45.13% | 93.46% and 102.78% | 18.95% and 18.46% | 110.44% and 99.23% | – | – | – | – | – | – | – | – | – | – | – | – | – | – | – | – | activation of PPARα (human PPARα): low level activation; inhibition of PRMT5 (PRMT5): mild inhibitor |
| Cl.O=C(O)Cc1cccc(OCCCN(Cc2cccc(C(F)(F)F)c2Cl)CC(c2ccccc2)c2ccccc2)c1 [GW 3965, 3-[3-[[[2-chloro-3-(trifluoromethyl)phenyl]methyl](2,2-diphenylethyl)amino]propoxy]-benzeneacetic acid, monohydrochloride] | – | – | – | – | 1.47% | 6431 | 124.34% | 544281 | 105.86% | 463366 | 103.73% | 454053 | 95.29% | 417100 | 137.65% | 602561 | 112.86% | 494019 | 103.66% | 453763 | affinity for LXR and FXR (LXR and FXR): nanomolar affinity; IC50 (PRMT5/MEP50): 84.2 µM; % Enzyme Activity (relative to DMSO controls) (PRMT5/MEP50; monohydrochloride): 1.54% and 1.23%; % Activity (PRMT5/MEP50; Conc. 4.57E−08 M): 99.34%; Raw data (PRMT5/MEP50; Conc. 4.57E−08 M): 434862; % Activity (PRMT5/MEP50; Conc. 5.08E−09 M): 98.94%; Raw data (PRMT5/MEP50; Conc. 5.08E−09 M): 433085; HILLSLOPE (PRMT5/MEP50): −24.99; % Enzyme Activity (relative to DMSO controls) (PRMT6; monohydrochloride): 83.29% and 103.66%; EC50 (LXRα): 0.29 µM; % Enzyme Activity (relative to DMSO controls) (PRMT5; monohydrochloride): 90.29% and 97.35%; % Enzyme Activity (relative to DMSO controls) (PRMT1; monohydrochloride): 6.93% and 4.55% |
| CN(CCOc1ccc(CC2SC(=O)NC2=O)cc1)c1ccccn1 (stereo not shown) [Rosiglitazone, 5-[[4-[2-(methyl-2-pyridinylamino)ethoxy]phenyl]methyl]-2,4-thiazolidinedione] | – | – | – | – | – | – | – | – | – | – | – | – | – | – | – | – | – | – | – | – | inhibition of PRMT5 (PRMT5): no effect |
| CC(C)c1onc(-c2c(Cl)cccc2Cl)c1COc1ccc(C=Cc2cccc(C(=O)O)c2)c(Cl)c1 [GW 4064, 3-[2-[2-chloro-4-[[3-(2,6-dichlorophenyl)-5-(1-methylethyl)-4-isoxazolyl]methoxy]phenyl]ethenyl]-benzoic acid] | – | – | – | – | 5.70% | 24954 | 117.75% | 515444 | 105.80% | 463109 | 99.86% | 437127 | 96.95% | 424387 | 120.51% | 527528 | 103.51% | 453113 | 99.48% | 435450 | affinity for LXR and FXR (LXR and FXR): nanomolar affinity; IC50 (PRMT5/MEP50): 79.2 µM; % Activity (PRMT5/MEP50; Conc. 4.57E−08 M): 97.26%; Raw data (PRMT5/MEP50; Conc. 4.57E−08 M): 425743; % Activity (PRMT5/MEP50; Conc. 5.08E−09 M): 94.60%; Raw data (PRMT5/MEP50; Conc. 5.08E−09 M): 414110; HILLSLOPE (PRMT5/MEP50): −12.23 |
| Cc1onc(-c2ccccc2Cl)c1C(=O)N(C)c1ccc(Cl)cc1 [TGR5 agonist, 3-(2-chlorophenyl)-N-(4-chlorophenyl)-N,5-dimethyl-4-isoxazolecarboxamide] | 90.97% and 82.32% | 70.12% and 73.79% | 84.41% and 87.02% | 100.02% and 92.67% | – | – | – | – | – | – | – | – | – | – | – | – | – | – | – | – | pEC50, activator of TGR5 (TGR5): 6.8-7.5 |
| C[C@H](CCC(=O)O)[C@H]1CC[C@H]2[C@@H]3[C@H](O)C[C@@H]4C[C@H](O)CC[C@]4(C)[C@H]3CC[C@]12C [Chenodeoxycholic acid, 3α, 7α-dihydroxy-5β-cholan-24-oic acid] | – | – | – | – | – | – | – | – | – | – | – | – | – | – | – | – | – | – | – | – | direct inhibitory effect on PRMTs (PRMTs): no direct inhibitory effect |
| Nc1ncnc2c1ncn2[C@@H]1O[C@H](CSCC[C@H](N)C(=O)O)[C@@H](O)[C@H]1O [SAH, S-(5′-Adenosyl)-L-homocysteine] | – | – | – | – | 5.40% | 23637 | 23.32% | 102087 | 61.44% | 268933 | 87.83% | 384445 | 90.12% | 394475 | 11.73% | 51347 | 42.02% | 183946 | 72.99% | 319517 | % Activity (PRMT5/MEP50; Conc. 4.57E−08 M): 96.88%; Raw data (PRMT5/MEP50; Conc. 4.57E−08 M): 424069; % Activity (PRMT5/MEP50; Conc. 5.08E−09 M): 91.72%; Raw data (PRMT5/MEP50; Conc. 5.08E−09 M): 401476; HILLSLOPE (PRMT5/MEP50): −0.78; IC50 (PRMT6): 0.623 µM |
| CC[C@H]1[C@@H](O)[C@@H]2[C@H](CC[C@]3(C)[C@@H]([C@H](C)CCC(=O)O)CC[C@@H]23)[C@@]2(C)CC[C@@H](O)C[C@@H]12 [INT-747, 6α-Ethyl-chenodeoxycholic acid] | 95.73% and 93.91% | 312.24% and 288.93% | 106.35% and 105.51% | 112.72% and 115.42% | – | – | – | – | – | – | – | – | – | – | – | – | – | – | – | – | – |
